The first test has as its target human APJ receptor (Homo sapiens (Human), UniProt P35414). The test can be described thus: biochemical. It is filed as biochemical.
Conditions: not given
The method, then: The human APJ receptor was cloned by polymerase chain reaction and the gene encoding the receptor was subcloned in pFLAG-CMV™-3 expression vector (Sigma, Saint Louis, Mo. USA) in-house at Amgen. A GTPγS binding assay was performed on membranes prepared from CHO cells stably expressing human APJ receptor. The optimum experimental conditions for the concentrations of GDP, MgCl2, and NaCl in the assay buffer were initially determined. The assay was performed in 9 μL assay buffer [20 mM HEPES, pH 7.5, 5 mM MgCl2, 100 mM NaCl and 0.1% (w/v) BSA], 1 μL of diluted test compound (starting with 0.75 mM, 2-fold serial dilution with DMSO, total 22 points), 10 μL of 18 µM GDP (final concentration of 3 μM GDP), 20 μL of […] membrane protein expressing human APJ receptor captured with WGA PS beads (final concentration of 5 μg per well), and 20 μL of 0.3 nM [^35S]GTPγS (final concentration is 0.1 nM [^35S]GTPγS)(Perkin Elmer Life and Analytical Sciences, Waltham USA).
Chain of human APJ receptor (P35414 whole entry): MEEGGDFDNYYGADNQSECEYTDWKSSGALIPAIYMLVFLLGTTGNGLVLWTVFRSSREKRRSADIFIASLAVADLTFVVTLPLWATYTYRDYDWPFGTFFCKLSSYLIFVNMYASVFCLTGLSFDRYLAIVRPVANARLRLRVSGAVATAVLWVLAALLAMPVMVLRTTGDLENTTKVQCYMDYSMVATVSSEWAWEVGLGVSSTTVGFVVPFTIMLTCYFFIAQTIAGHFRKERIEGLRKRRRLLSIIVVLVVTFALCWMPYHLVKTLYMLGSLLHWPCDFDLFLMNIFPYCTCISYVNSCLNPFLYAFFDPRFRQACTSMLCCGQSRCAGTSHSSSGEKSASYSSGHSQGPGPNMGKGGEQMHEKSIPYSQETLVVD
A word on the EC50: it is the midpoint of the concentration-response curve. Take `COc1cccc(OC)c1-n1c(COC(F)F)nnc1NS(=O)(=O)[C@@H](C)[C@H](OC)c1ncc(Cl)cn1` [Example 65.0, (1R,2S)-1-(5-chloro-2-pyrimidinyl)-N-(5-((difluoromethoxy)methyl)-4-(2,6-dimethoxyphenyl)-4H-1,2,4-triazol-3-yl)-1-methoxy-2-propanesulfonamide]: the midpoint of the response, the EC50, lay at 0.0057 µM.

The same test, now with this note: [35S]GTPγS binding, membranes from CHO cells stably expressing human APJ receptor; read-out: Activity hAPJ SPA EC50 IP.
With `COc1cccc(OC)c1-n1c(Cc2ccccn2)nnc1NS(=O)(=O)[C@@H](C)[C@H](C)c1ncc(Cl)cn1` [Example 35.0, (2S,3R)-3-(5-chloro-2-pyrimidinyl)-N-(4-(2,6-dimethoxyphenyl)-5-(2-pyridinylmethyl)-4H-1,2,4-triazol-3-yl)-2-butanesulfonamide], the EC50 was 0.032 µM.

On to `COc1cccc(OC)c1-n1c(CC(C)(C)OC)nnc1NS(=O)(=O)[C@@H](C)[C@H](C)c1ncc(Cl)cn1` [Example 40.0, (2S,3R)-3-(5-chloro-2-pyrimidinyl)-N-(4-(2,6-dimethoxyphenyl)-5-(2-methoxy-2-methylpropyl)-4H-1,2,4-triazol-3-yl)-2-butanesulfonamide], for which the concentration for a half-maximal effect (EC50) stood at 0.11 µM.

Regarding `COc1ncnc(OC)c1-n1c(CC2CCC2)nnc1NS(=O)(=O)[C@@H](C)[C@H](OC)c1ncc(Cl)cn1` [Example 24.0, (1R,2S)-1-(5-chloro-2-pyrimidinyl)-N-(5-(cyclobutylmethyl)-4-(4,6-dimethoxy-5-pyrimidinyl)-4H-1,2,4-triazol-3-yl)-1-methoxy-2-propanesulfonamide], the concentration for a half-maximal effect (EC50) was 0.0015 µM.

As for `COc1ncnc(OC)c1-n1c(COC(C)C)nnc1NS(=O)(=O)[C@@H](C)[C@H](C)c1ncc(Cl)cn1` [Example 80.0, (2S,3R)-3-(5-chloropyrimidin-2-yl)-N-(4-(4,6-dimethoxypyrimidin-5-yl)-5-(isopropoxymethyl)-4H-1,2,4-triazol-3-yl)butane-2-sulfonamide], the concentration for a half-maximal effect (EC50) amounted to 0.0024 µM.

`COCc1nnc(NS(=O)(=O)[C@@H](C)[C@@H](OC(C)C)c2ccc(C)cn2)n1-c1c(OC)cccc1OC` [Example 155.0]: the half-maximal effective concentration (EC50) amounted to 0.012 µM.

`COc1ncnc(OC)c1-n1c(CC2COC2)nnc1NS(=O)(=O)[C@@H](C)[C@H](C)c1ncc(Cl)cn1` [Example 33.0, (2S,3R)-3-(5-chloro-2-pyrimidinyl)-N-(4-(4,6-dimethoxy-5-pyrimidinyl)-5-(3-oxetanylmethyl)-4H-1,2,4-triazol-3-yl)-2-butanesulfonamide]: the concentration giving a half-maximal response (EC50) came out at 0.21 µM.

Turning to `COc1ncnc(OC)c1-n1c(NS(=O)(=O)[C@@H](C)[C@H](C)c2ncc(Cl)cn2)nnc1[C@@H](C)OC(C)C` (single isomer, unassigned) [Example 2.0, (2S,3R)-3-(5-chloro-2-pyrimidinyl)-N-(4-(4,6-dimethoxy-5-pyrimidinyl)-5-((1R)-1-(1-methylethoxy)ethyl)-4H-1,2,4-triazol-3-yl)-2-butanesulfonamide or (2S,3R)-3-(5-chloro-2-pyrimidinyl)-N-(4-(4,6-dimethoxy-5-pyrimidinyl)-5-((1S)-1-(1-methylethoxy)ethyl)-4H-1,2,4-triazol-3-yl)-2-butanesulfonamide], the concentration giving a half-maximal response (EC50) was found to be 0.17 µM.

Consider `COc1cccc(OC)c1-n1c(Cc2ccncc2)nnc1NS(=O)(=O)[C@@H](C)[C@H](C)c1ncc(Cl)cn1` [Example 45.0, (2S,3R)-3-(5-chloro-2-pyrimidinyl)-N-(4-(2,6-dimethoxyphenyl)-5-(4-pyridinylmethyl)-4H-1,2,4-triazol-3-yl)-2-butanesulfonamide], for which the half-maximal effective concentration (EC50) amounted to 0.0017 µM.

As to `COc1cccc(OC)c1-n1c(CS(C)(=O)=O)nnc1NS(=O)(=O)[C@@H](C)[C@H](C)c1ncc(Cl)cn1` [Example 37.0, (2S,3R)-3-(5-chloro-2-pyrimidinyl)-N-(4-(2,6-dimethoxyphenyl)-5-((methylsulfonyl)methyl)-4H-1,2,4-triazol-3-yl)-2-butanesulfonamide], the EC50 came out at 0.34 µM.

In the case of `COCc1nnc(NS(=O)(=O)[C@@H](C)[C@H](OC)c2ncc(Cl)cn2)n1C1(C)CC1` [Example 59.0, (1R,2S)-1-(5-chloropyrimidin-2-yl)-1-methoxy-N-(5-(methoxymethyl)-4-(1-methylcyclopropyl)-4H-1,2,4-triazol-3-yl)propane-2-sulfonamide], the EC50 turned out to be 0.033 µM.

For `CC[C@@H](OC)c1nnc(NS(=O)(=O)[C@@H](C)[C@H](C)c2ncc(Cl)cn2)n1-c1c(OC)ncnc1OC` (single isomer, unassigned) [Example 6.0, (2S,3R)-3-(5-chloro-2-pyrimidinyl)-N-(4-(4,6-dimethoxy-5-pyrimidinyl)-5-((1R)-1-methoxypropyl)-4H-1,2,4-triazol-3-yl)-2-butanesulfonamide or (2S,3R)-3-(5-chloro-2-pyrimidinyl)-N-(4-(4,6-dimethoxy-5-pyrimidinyl)-5-((1S)-1-methoxypropyl)-4H-1,2,4-triazol-3-yl)-2-butanesulfonamide], the half-maximal effective concentration (EC50) turned out to be 0.74 µM.

Consider `COc1cccc(OC)c1-n1c(C[C@@H]2CCCO2)nnc1NS(=O)(=O)[C@@H](C)[C@H](C)c1ncc(Cl)cn1` (mixture of isomers) [Example 46.0, (2S,3R)-3-(5-chloro-2-pyrimidinyl)-N-(4-(2,6-dimethoxyphenyl)-5-((2R)-tetrahydro-2-furanylmethyl)-4H-1,2,4-triazol-3-yl)-2-butanesulfonamide and (2S,3R)-3-(5-chloro-2-pyrimidinyl)-N-(4-(2,6-dimethoxyphenyl)-5-((2S)-tetrahydro-2-furanylmethyl)-4H-1,2,4-triazol-3-yl)-2-butanesulfonamide], for which the EC50 is 0.33 µM.

Take `COc1ncnc(OC)c1-n1c(NS(=O)(=O)[C@@H](C)[C@H](OC)c2ncc(Cl)cn2)nnc1C(C)C` [Example 133.0, (1R,2S)-1-(5-chloro-2-pyrimidinyl)-N-(4-(4,6-dimethoxy-5-pyrimidinyl)-5-(2-propanyl)-4H-1,2,4-triazol-3-yl)-1-methoxy-2-propanesulfonamide]: the EC50 amounted to 0.022 µM.

Regarding `CCCCc1nnc(NS(=O)(=O)[C@@H](C)[C@H](OC)c2ncc(C)cn2)n1-c1c(OC)cccc1OC` [Example 175.0], the EC50 turned out to be 0.0017 µM.

Regarding `COc1cccc(OC)c1-n1c(Cc2ccsc2)nnc1NS(=O)(=O)[C@@H](C)[C@H](C)c1ncc(Cl)cn1` [Example 38.0, (2S,3R)-3-(5-chloro-2-pyrimidinyl)-N-(4-(2,6-dimethoxyphenyl)-5-(3-thiophenylmethyl)-4H-1,2,4-triazol-3-yl)-2-butanesulfonamide], the 50% effective concentration (EC50) was found to be 0.006 µM.

On to `COc1ncnc(OC)c1-n1c(CC2CC2)nnc1NS(=O)(=O)[C@@H](C)[C@H](OC)c1ncc(Cl)cn1` [Example 27.0, (1R,2S)-1-(5-chloro-2-pyrimidinyl)-N-(5-(cyclopropylmethyl)-4-(4,6-dimethoxy-5-pyrimidinyl)-4H-1,2,4-triazol-3-yl)-1-methoxy-2-propanesulfonamide], for which the EC50 is 0.0076 µM.

For the compound `COc1cccc(OC)c1-n1c(Cc2nc(C)cs2)nnc1NS(=O)(=O)[C@@H](C)[C@H](C)c1ncc(Cl)cn1` [Example 44.0, (2S,3R)-3-(5-chloro-2-pyrimidinyl)-N-(4-(2,6-dimethoxyphenyl)-5-((4-methyl-1,3-thiazol-2-yl)methyl)-4H-1,2,4-triazol-3-yl)-2-butanesulfonamide], the EC50 came out at 0.036 µM.

Turning to `COc1ncnc(OC)c1-n1c(COC(C)C)nnc1NS(=O)(=O)[C@@H](C)[C@H](OC)c1ncc(Cl)cn1` [Example 79.0, (1R,2S)-1-(5-chloropyrimidin-2-yl)-N-(4-(4.6-dimethoxypyrimidin-5-yl)-5-(isopropoxymethyl)-4H-1,2,4-triazol-3-yl)-1-methoxypropane-2-sulfonamide], the concentration giving a half-maximal response (EC50) was determined as 0.0029 µM.

As to `COc1cccc(OC)c1-n1c(CN2CCCCCC2=O)nnc1NS(=O)(=O)[C@@H](C)[C@H](OC)c1ncc(C)cn1` [Example 52.0], the EC50 was determined as 0.65 µM.

Regarding `COCCc1nnc(NS(=O)(=O)[C@@H](C)[C@H](OC)c2ncc(Cl)cn2)n1C(COC)COC` [Example 146.0], the EC50 came to 0.25 µM.

Turning to `COCc1nnc(NS(=O)(=O)[C@@H](C)[C@H](C)c2ncc(OC)cn2)n1-c1c(OC)cccc1OC` [Example 130.0], the EC50 is 0.012 µM.

The test is the same for the next values; noted with them: read-out: Activity hAPJ SPA EC50 IP.
Turning to `COCc1nnc(NS(=O)(=O)[C@@H](C)[C@H](C)c2ncc(Cl)cn2)n1-c1c(OC)cccc1OC` [Example 10.0, (2S,3R)-3-(5-chloro-2-pyrimidinyl)-N-(4-(2,6-dimethoxyphenyl)-5-(methoxymethyl)-4H-1,2,4-triazol-3-yl)-2-butanesulfonamide], the EC50 was determined as 0.015 µM.

With `COc1cccc(OC)c1-n1c(COC(C)C)nnc1NS(=O)(=O)[C@@H](C)[C@H](OC)c1ncc(Cl)cn1` [Example 69.0, (1R,2S)-1-(5-chloropyrimidin-2-yl)-N-(4-(2,6-dimethoxyphenyl)-5-(isopropoxymethyl)-4H-1,2,4-triazol-3-yl)-1-methoxypropane-2-sulfonamide], the EC50 was 0.0012 µM.

On to `COCc1nnc(NS(=O)(=O)[C@@H](C)[C@H](OC)c2ccc(Cl)cn2)n1-c1c(OC)cccc1OC` [Example 76.0, (1R,2S)-1-(5-chloropyridin-2-yl)-N-(4-(2,6-dimethoxyphenyl)-5-(methoxymethyl)-4H-1,2,4-triazol-3-yl)-1-methoxypropane-2-sulfonamide], for which the concentration for a half-maximal effect (EC50) was 0.0048 µM.

With `COc1cccc(OC)c1-n1c(COC(C)C)nnc1NS(=O)(=O)[C@@H](C)[C@H](C)c1ncc(Cl)cn1` [Example 161.0], the EC50 is 0.0022 µM.

With `COCc1nnc(NS(=O)(=O)[C@@H](C)[C@@H](OC(C)C)c2ncc(F)cn2)n1-c1c(OC)cccc1OC` [Example 154.0], the EC50 stood at 0.0066 µM.
